Activity calls are given as the source filed them. The rule behind the calls is not given here.
What was measured:
[1] = Stability of compound in 0.1M HCl solution at pH 1.0 assessed as parent compound remaining measured after 48 hrs by 1H NMR analysis; type: physicochemical; details: read-out: Stability
[2] = Permeability of compound incubated for 12 hrs by PAMPA; type: ADME; details: read-out: permeability
U-87 MG = assay: Antiproliferative activity against human U-87 MG cells assessed as inhibition of cell proliferation incubated for 72 hrs by CCK8 assay; type: functional, cell-based, U-87MG ATCC
U-118-MG [3] = assay: Induction of apoptosis in human U-118-MG cells assessed as downregulation of c-Myc expression level at 1 to 40 uM incubated for 24 hrs by Western blot analysis; type: functional, cell-based; details: dose 1-40 µM
U-118-MG [4] = assay: Inhibition of cell migration in human U-118-MG cells assessed as decrease in number of migrating cells at 1 uM incubated for 24 hrs by transwell assay; type: functional, cell-based
U-118-MG [5] = assay: Inhibition of cell migration in human U-118-MG cells at 0.1 to 10 uM incubated for 24 hrs by microscopy based wound healing assay; type: functional; details: dose 0.1-10 µM
U-118-MG [6] = assay: Cytotoxicity against human U-118-MG cells assessed as reduction in cell viability at 0.1 to 10 uM incubated for 24 hrs; type: functional, cell-based; details: dose 0.1-10 µM
U-118-MG [7] = assay: Cell cycle arrest in human U-118-MG cells assessed as accumulation of cells at G1 phase at 3 uM incubated for 24 hrs by flow cytometric analysis (reference value: 56.2 %); type: functional
U-118-MG [8] = assay: Cell cycle arrest in human U-118-MG cells assessed as accumulation of cells at S phase at 3 uM incubated for 24 hrs by flow cytometric analysis (reference value: 10.7 %); type: functional
U-118-MG [9] = assay: Cell cycle arrest in human U-118-MG cells assessed as accumulation of cells at G1 phase at 10 uM incubated for 24 hrs by flow cytometric analysis (reference value: 56.2 %); type: functional
U-118-MG [10] = assay: Cell cycle arrest in human U-118-MG cells assessed as accumulation of cells at G2 phase at 10 uM incubated for 24 hrs by flow cytometric analysis (reference value: 30.6 %); type: functional
U-118-MG [11] = assay: Cell cycle arrest in human U-118-MG cells assessed as accumulation of cells at G1 phase at 20 uM incubated for 24 hrs by flow cytometric analysis (reference value: 56.2 %); type: functional
[12] = Tmax in Sprague-Dawley rat at 5 mg/kg, ip; type: ADME, organism-based; details: in vivo
[13] = Ratio of drug concentration in Sprague-Dawley rat brain to plasma at 5 mg/kg, ip measured after 0.5 hrs; type: ADME, organism-based; details: read-out: BPR
[14] = Drug distribution in Sprague-Dawley rat brain at 5 mg/kg, ip measured after 4 hrs; type: ADME, organism-based; details: read-out: Ct
[15] = Toxicity in male BALB/c nude mouse xenografted with human U-118-MG cells assessed as body weight loss at 2.5 to 10 mg/kg, ip administered daily for 4 weeks; type: organism-based; details: in vivo, 672 h, dose 2.5-10 mg/kg
[16] = Toxicity in male BALB/c nude mouse xenografted with human U-118-MG cells assessed as effect on serum AST level at 2.5 to 10 mg/kg, ip administered daily for 4 weeks; type: organism-based; details: in vivo, 672 h, dose 2.5-10 mg/kg
[17] = Toxicity in male BALB/c nude mouse xenografted with human U-118-MG cells assessed as effect on serum urea level at 2.5 to 10 mg/kg, ip administered daily for 4 weeks; type: organism-based; details: in vivo, 672 h, dose 2.5-10 mg/kg
[18] = Toxicity in male BALB/c nude mouse xenografted with human U-118-MG cells assessed as metastasis in heart at 2.5 to 10 mg/kg, ip administered daily for 4 weeks by H and E staining based analysis; type: organism-based; details: in vivo, 672 h, dose 2.5-10 mg/kg

**Q.** With `COc1ccc2c(c1OC)C(=O)O[C@@H]2[C@H]1c2c(c(Br)c3c(c2OC)OCO3)CCN1C(F)(F)F` as the compound, how does the remaining at 48 h [1] read?
**A.** 86%

**Q.** What about the Papp at 12 h [2] of the same compound?
**A.** 12.1 ×10⁻⁶ cm/s

**Q.** And the IC50 (U-87 MG)?
**A.** 7.46 µM

**Q.** And the Activity (U-118-MG [3])?
**A.** Active

**Q.** What about the inhibition (U-118-MG [4]) of the same compound?
**A.** Active; Superior Inhibitory Activity Compared To Noscapine And Tmz

**Q.** What about the inhibition (U-118-MG [5]) of the same compound?
**A.** Active

**Q.** And the Activity (U-118-MG [6])?
**A.** inactive

**Q.** And the Activity (U-118-MG [7])?
**A.** 55.7%

**Q.** And the Activity (U-118-MG [8])?
**A.** 10.4%

**Q.** And the Activity (U-118-MG [9])?
**A.** 56.6%

**Q.** What about the Activity (U-118-MG [10]) of the same compound?
**A.** 32.1%

**Q.** What about the Activity (U-118-MG [11]) of the same compound?
**A.** 48.3%

**Q.** What about the Tmax [12] of the same compound?
**A.** 30 min

**Q.** What about the Kp at 0.5 h [13] of the same compound?
**A.** 0.349

**Q.** What about the concentration at 4 h [14] of the same compound?
**A.** 34.5 ng/g

**Q.** What about the Activity [15] of the same compound?
**A.** Non-toxic

**Q.** And the Activity [16]?
**A.** Non-toxic

**Q.** And the Activity [17]?
**A.** Non-toxic

**Q.** What about the Activity [18] of the same compound?
**A.** Non-toxic
